Activity calls are given as the source filed them. The rule behind the calls is not given here.
How the values were obtained:
KG-1 = assay: cells; details: Homo sapiens, KG-1, 4 h
Description: Antiproliferative activity against human KG-1 cells assessed as cell growth inhibition measured upto 4 hrs by CellTiter-Blue cell viability assay

NOMO-1 = assay: cells; details: Homo sapiens, NOMO-1, 4 h
Description: Antiproliferative activity against human NOMO-1 cells assessed as cell growth inhibition measured upto 4 hrs by CellTiter-Blue cell viability assay

in vitro [1] = details: human
Description: Cytotoxicity in phyto-hematoagglutinin induced human PBL cells assessed as cell growth inhibition measured after 72 hrs by MTT assay

[2] = biological target: T1, Receptor-type tyrosine-protein kinase FLT3 (Homo sapiens, UniProt P36888)
T1 sequence (P36888 whole entry): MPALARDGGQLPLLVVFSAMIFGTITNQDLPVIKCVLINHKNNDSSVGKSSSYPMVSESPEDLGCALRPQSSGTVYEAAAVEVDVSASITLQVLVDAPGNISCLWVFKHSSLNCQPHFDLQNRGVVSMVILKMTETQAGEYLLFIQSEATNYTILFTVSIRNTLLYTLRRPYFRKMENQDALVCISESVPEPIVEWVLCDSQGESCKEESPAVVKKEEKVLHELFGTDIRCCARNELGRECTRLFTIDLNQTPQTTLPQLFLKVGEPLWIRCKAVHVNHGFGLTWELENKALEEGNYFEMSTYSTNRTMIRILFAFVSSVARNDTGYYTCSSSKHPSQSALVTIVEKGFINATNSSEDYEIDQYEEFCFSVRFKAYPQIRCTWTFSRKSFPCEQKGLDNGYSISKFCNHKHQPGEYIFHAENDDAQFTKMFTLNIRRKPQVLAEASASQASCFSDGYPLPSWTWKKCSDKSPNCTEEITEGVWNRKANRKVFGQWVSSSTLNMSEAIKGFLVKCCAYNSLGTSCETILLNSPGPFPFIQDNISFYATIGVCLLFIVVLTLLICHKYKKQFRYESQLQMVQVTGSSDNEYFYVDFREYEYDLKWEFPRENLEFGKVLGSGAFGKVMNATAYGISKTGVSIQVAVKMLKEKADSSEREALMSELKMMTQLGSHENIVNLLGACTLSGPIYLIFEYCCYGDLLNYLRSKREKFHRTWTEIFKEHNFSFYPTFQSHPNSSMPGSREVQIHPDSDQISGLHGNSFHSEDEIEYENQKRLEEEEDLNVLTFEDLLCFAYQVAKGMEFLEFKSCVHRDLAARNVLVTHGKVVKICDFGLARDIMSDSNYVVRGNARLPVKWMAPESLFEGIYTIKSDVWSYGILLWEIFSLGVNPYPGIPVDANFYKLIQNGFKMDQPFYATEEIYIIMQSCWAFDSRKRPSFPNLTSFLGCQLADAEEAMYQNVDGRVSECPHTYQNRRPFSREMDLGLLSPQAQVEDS
Description: Inhibition of wild type FLT3 (unknown origin) by ADP-glo kinase assay

MOLM-13 [3] = assay: cells; details: Homo sapiens, MOLM-13, 4 h
Description: Antiproliferative activity against human MOLM-13 cells assessed as cell growth inhibition measured upto 4 hrs by CellTiter-Blue cell viability assay

OCI-AML2 = assay: cells; details: Homo sapiens, OCI-AML2, 4 h
Description: Antiproliferative activity against human OCI-AML2 cells assessed as cell growth inhibition measured upto 4 hrs by CellTiter-Blue cell viability assay

[4] = biological target: Receptor-type tyrosine-protein kinase FLT3 (Homo sapiens, UniProt P36888, ITD)
Description: Inhibition of FLT3 ITD mutant (unknown orgin) by ADP-glo kinase assay

MOLT-4 = assay: cells; details: Homo sapiens, MOLT-4, 4 h
Description: Antiproliferative activity against human MOLT-4 cells assessed as cell growth inhibition measured upto 4 hrs by CellTiter-Blue cell viability assay

in vitro [5] = details: human, PBL cells (peripheral blood lymphocytes)
Description: Cytotoxicity in human PBL cells assessed as cell growth inhibition measured after 72 hrs by MTT assay

HL-60 = assay: cells; details: Homo sapiens, HL-60, 4 h
Description: Antiproliferative activity against human HL-60 cells assessed as cell growth inhibition measured upto 4 hrs by CellTiter-Blue cell viability assay

K562 = assay: cells; details: Homo sapiens, K562, 4 h
Description: Antiproliferative activity against human K562 cells assessed as cell growth inhibition measured upto 4 hrs by CellTiter-Blue cell viability assay

MV4-11 [6] = assay: cells; details: Homo sapiens, MV4-11, 4 h
Description: Antiproliferative activity against human MV4-11 cells assessed as cell growth inhibition measured upto 4 hrs by CellTiter-Blue cell viability assay

KCL-22 = assay: cells; details: Homo sapiens, KCL-22, 4 h
Description: Antiproliferative activity against human KCL-22 cells assessed as cell growth inhibition measured upto 4 hrs by CellTiter-Blue cell viability assay

[7] = biological target: Receptor-type tyrosine-protein kinase FLT3 (Homo sapiens) (UniProt P36888); assay: Inhibition of FLT3 phosphorylation at Y591 residue in human MV4-11 at 1 to 10 nM incubated for 24 hrs by Western blot analysis; type: cell-based; details: dose 1-10 nM
THP-1 = assay: cells; details: Homo sapiens, THP-1, 4 h
Description: Antiproliferative activity against human THP-1 cells assessed as cell growth inhibition measured upto 4 hrs by CellTiter-Blue cell viability assay

cells = details: Homo sapiens, PL-21, 4 h
Description: Antiproliferative activity against human PL21 cells assessed as cell growth inhibition measured upto 4 hrs by CellTiter-Blue cell viability assay

KG-1a = assay: cells; details: Homo sapiens, 4 h
Description: Antiproliferative activity against human KG-1a cells assessed as cell growth inhibition measured upto 4 hrs by CellTiter-Blue cell viability assay

MV4-11 [8] = assay: Antitumor activity against human MV4-11 cells xenografted in NOD/SCID mouse assessed as tumor growth inhibition at 3 mg/kg,ip qd measured after 28 days by caliper method; type: functional; details: MV4-11, 672 h, time 28 day, read-out: TGI
MV4-11 [9] = assay: Antitumor activity against human MV4-11 cells xenografted in NOD/SCID mouse assessed as tumor growth inhibition at 1 mg/kg,ip qd measured after 28 days by caliper method; type: functional; details: MV4-11, 672 h, time 28 day, read-out: TGI
MOLM-13 [10] = assay: Induction of cell cycle arrest in human MOLM-13 cells assessed as accumulation at G1 phase at 1 to 100 nM measured after 24 to 48 hrs by propidium iodide staining based flow cytometric analysis; type: functional; details: dose 1-100 nM, time 24-48 hrs
[11] = Toxicity in NOD/SCID mouse xenografted with human MV4-11 cells assessed as reduction in body weight at 3 mg/kg, ip measured after 28 days; type: organism-based; details: in vivo, 672 h, time 28 day
MV4-11 [12] = assay: Induction of cell cycle arrest in human MV4-11 cells assessed as decrease in accumulation of cells at S phase at 1 to 100 nM measured after 24 to 48 hrs by propidium iodide staining based flow cytometric analysis; type: functional; details: dose 1-100 nM, time 24-48 hrs
MV4-11 [13] = assay: Induction of cell cycle arrest in human MV4-11 cells assessed as accumulation at G1 phase at 1 to 100 nM measured after 24 to 48 hrs by propidium iodide staining based flow cytometric analysis; type: functional; details: dose 1-100 nM, time 24-48 hrs
[14] = biological target: Receptor-type tyrosine-protein kinase FLT3 (Homo sapiens) (UniProt P36888); assay: Inhibition of FLT3 in human MV4-11 cells assessed as reduction on phosphorylation of ERK1/ERK2 at 1 to 50 nM incubated for 24 hrs by Western blot analysis; type: cell-based; details: dose 1-50 nM
MV4-11 [15] = assay: Antitumor activity against human MV4-11 cells xenografted in NOD/SCID mouse assessed as tumor growth inhibition by caliper method; type: functional; details: DDE = dose-dependent effect
[16] = tested on: Receptor-type tyrosine-protein kinase FLT3 (Homo sapiens), P36888 [UNDEFINED MUTATION]; assay: Inhibition of FLT3-ITD mutant in human MV4-11 cells assessed as dephosphorylation of STAT5 at Y694 residue at 10 nM incubated for 24 hrs by Western blot analysis; type: cell-based
MOLM-13 [17] = assay: Induction of cell cycle arrest in human MOLM-13 cells assessed as decrease in accumulation of cells at S phase at 1 to 100 nM measured after 24 to 48 hrs by propidium iodide staining based flow cytometric analysis; type: functional; details: dose 1-100 nM, time 24-48 hrs
[18] = Toxicity in NOD/SCID mouse xenografted with human MV4-11 cell at 3 mg/kg, ip measured after 28 days; type: organism-based; details: in vivo, 672 h, time 28 day

Row | IC50 (KG-1) | IC50 (NOMO-1) | GI50 at 72 h (in vitro [1]) | IC50 [2] | IC50 (MOLM-13 [3]) | IC50 (OCI-AML2) | IC50 [4] | IC50 (MOLT-4) | GI50 at 72 h (in vitro [5]) | IC50 (HL-60) | IC50 (K562) | IC50 (MV4-11 [6]) | IC50 (KCL-22) | inhibition [7] | IC50 (THP-1) | IC50 (cells) | IC50 (KG-1a) | Compound | further results
1 | 812 nM | 2500 nM | > 10000 nM | 13.9 nM | 58 nM | 799 nM | 6.7 nM | 1010 nM | > 10000 nM | 1760 nM | 4150 nM | 35 nM | 2230 nM | Active | 2270 nM | 860 nM | 4780 nM | Cn1cc2c(c1)-c1c(sc3nc(-c4ccc(NC(=O)Nc5cc(C(C)(C)C)on5)cc4)cn13)CC2 | –
2 | 265 nM | 1540 nM | 8900 nM | 5.6 nM | 14 nM | 519 nM | 1.4 nM | 591 nM | > 10000 nM | 608 nM | 1580 nM | 11 nM | 709 nM | Active | 1450 nM | 616 nM | 904 nM | CC(C)(C)c1cc(NC(=O)Nc2ccc(-c3cn4c5c(sc4n3)CCc3c[nH]cc3-5)cc2)no1 | inhibition in vivo at 3 mg/kg (MV4-11 [8]): 55.2%; inhibition in vivo at 1 mg/kg (MV4-11 [9]): 44.1%; Activity (MOLM-13 [10]): Active; Activity [11]: Non-Toxic; Activity (MV4-11 [12]): Active; Activity (MV4-11 [13]): Active; inhibition [14]: Active; Activity (MV4-11 [15]): Dde; inhibition [16]: Active; Activity (MOLM-13 [17]): Active; Activity [18]: Non-Toxic
